Data on three molecules can be found in publication doi:10.1101/2020.04.05.026310v1 (biorxiv, 2020).

In series [1] the target is T1, mPDXK (mouse pyridoxal kinase) (Mus musculus, UniProt Q8K183).
T1 sequence (Q8K183 1-312): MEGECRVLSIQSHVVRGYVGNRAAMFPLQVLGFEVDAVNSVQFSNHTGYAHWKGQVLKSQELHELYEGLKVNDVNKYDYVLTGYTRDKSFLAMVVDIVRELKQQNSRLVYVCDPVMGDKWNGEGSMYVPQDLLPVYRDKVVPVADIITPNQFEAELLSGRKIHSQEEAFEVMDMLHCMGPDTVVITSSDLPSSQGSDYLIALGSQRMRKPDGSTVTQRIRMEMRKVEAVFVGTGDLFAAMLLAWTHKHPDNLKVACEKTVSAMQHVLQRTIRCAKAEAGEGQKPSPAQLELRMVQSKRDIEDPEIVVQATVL
Description: photometric PLP formation at […] nm, nonlinear variable-slope fit. Format: biochemical.

Series [2] concerns the target T1, mPDXK (mouse pyridoxal kinase). As to the kind of experiment: photometric PLP formation at […] nm, Dixon plot. Format: biochemical.
Substrate in the series “purified protein”: Cc1ncc(CO)c(C=O)c1O
As to the kind of experiment: purified protein. It counts as biochemical, Mus musculus. Conditions: 1 mM ATP, 1 mM MgCl2, 100 mM KCl, 10 mM Hepes pH 7.3, 37 °C.

Turning to `C[C@@H]1CC[C@H]2[C@@H](C)C(=O)O[C@@H]3O[C@@]4(C)CC[C@@H]1[C@]32OO4` [artemisinin], the concentration for half-maximal inhibition (IC50) (usually the concentration that inhibits the measured activity by half) in series [1] is 229 ± 1.3 µM. Moreover, the affinity in series [2], expressed as Ki, was 120 ± 2.4 µM.
`C[C@H]1[C@H](OC(=O)CCC(=O)O)O[C@@H]2O[C@@]3(C)CC[C@H]4[C@H](C)CC[C@@H]1[C@@]24OO3` [artesunate] displayed an IC50 in series [1] of 1445 ± 1.4 µM. Further, in series [2], the affinity, expressed as Ki, was 1250 ± 4.7 µM.

B1: mPDXK (mouse pyridoxal kinase) (Mus musculus) (protein)
chain: MEGECRVLSIQSHVVRGYVGNRAAMFPLQVLGFEVDAVNSVQFSNHTGYAHWKGQVLKSQELHELYEGLKVNDVNKYDYVLTGYTRDKSFLAMVVDIVRELKQQNSRLVYVCDPVMGDKWNGEGSMYVPQDLLPVYRDKVVPVADIITPNQFEAELLSGRKIHSQEEAFEVMDMLHCMGPDTVVITSSDLPSSQGSDYLIALGSQRMRKPDGSTVTQRIRMEMRKVEAVFVGTGDLFAAMLLAWTHKHPDNLKVACEKTVSAMQHVLQRTIRCAKAEAGEGQKPSPAQLELRMVQSKRDIEDPEIVVQATVL
As to B1, in the series “purified protein”, the Michaelis constant (Km) (commonly the concentration of substrate that gives half-maximal velocity) is 26.0 ± 5.4 µM; the kcat (as a rule, the number of substrate molecules converted per active site and unit of time at saturation) is 0.1436 ± 0.003 s⁻¹.
